Assay results as given in the NIST ThermoML archive (doi:10.1016/j.jct.2016.08.005).
Numbers after ± are expanded uncertainties.

Settings: Liquid, Vibrating tube method

c1ccsc1 [thiophene]
mass density [kg/m3]
Settings | 313.15 K | 318.15 K | 323.15 K | 328.15 K | 333.15 K | 338.15 K
100 kPa | 1040.68 ± 0.5 | 1034.64 ± 0.5 | 1028.59 ± 0.5 | 1022.43 ± 0.5 | 1016.27 ± 0.5 | 1010.08 ± 0.5
2000 kPa | 1042.52 ± 0.5 | 1036.54 ± 0.5 | 1030.52 ± 0.5 | 1024.49 ± 0.5 | 1018.35 ± 0.5 | 1012.22 ± 0.5
5000 kPa | 1045.35 ± 0.5 | 1039.44 ± 0.5 | 1033.54 ± 0.5 | 1027.57 ± 0.5 | 1021.56 ± 0.5 | 1015.53 ± 0.5
7000 kPa | 1047.19 ± 0.5 | 1041.36 ± 0.5 | 1035.52 ± 0.5 | 1029.6 ± 0.5 | 1023.65 ± 0.5 | 1017.69 ± 0.5
10000 kPa | 1049.91 ± 0.5 | 1044.15 ± 0.5 | 1038.37 ± 0.5 | 1032.58 ± 0.5 | 1026.72 ± 0.5 | 1020.86 ± 0.5
15000 kPa | 1054.25 ± 0.51 | 1048.65 ± 0.51 | 1042.99 ± 0.51 | 1037.33 ± 0.5 | 1031.63 ± 0.5 | 1025.92 ± 0.5
20000 kPa | 1058.47 ± 0.51 | 1052.97 ± 0.51 | 1047.45 ± 0.51 | 1041.91 ± 0.51 | 1036.34 ± 0.51 | 1030.78 ± 0.5
25000 kPa | 1062.52 ± 0.51 | 1057.12 ± 0.51 | 1051.73 ± 0.51 | 1046.31 ± 0.51 | 1040.87 ± 0.51 | 1035.41 ± 0.51
30000 kPa | 1066.43 ± 0.52 | 1061.15 ± 0.51 | 1055.85 ± 0.51 | 1050.54 ± 0.51 | 1045.21 ± 0.51 | 1039.88 ± 0.51
35000 kPa | 1070.21 ± 0.52 | 1065.02 ± 0.52 | 1059.82 ± 0.52 | 1054.61 ± 0.51 | 1049.39 ± 0.51 | 1044.17 ± 0.51
40000 kPa | 1073.88 ± 0.53 | 1068.77 ± 0.52 | 1063.67 ± 0.52 | 1058.55 ± 0.52 | 1053.43 ± 0.52 | 1048.31 ± 0.51
45000 kPa | 1077.41 ± 0.53 | 1072.41 ± 0.53 | 1067.38 ± 0.53 | 1062.36 ± 0.52 | 1057.32 ± 0.52 | 1052.28 ± 0.52
50000 kPa | 1080.86 ± 0.54 | 1075.92 ± 0.54 | 1070.98 ± 0.53 | 1066.05 ± 0.53 | 1061.09 ± 0.53 | 1056.13 ± 0.52
55000 kPa | 1084.2 ± 0.55 | 1079.33 ± 0.54 | 1074.48 ± 0.54 | 1069.6 ± 0.54 | 1064.72 ± 0.53 | 1059.87 ± 0.53
60000 kPa | 1087.42 ± 0.56 | 1082.65 ± 0.55 | 1077.86 ± 0.55 | 1073.07 ± 0.54 | 1068.26 ± 0.54 | 1063.48 ± 0.53
65000 kPa | 1090.59 ± 0.57 | 1085.87 ± 0.56 | 1081.13 ± 0.56 | 1076.42 ± 0.55 | 1071.7 ± 0.55 | 1066.99 ± 0.54
